Measured values: patent EP0252983B1, “SALTS OF N-(VINYLOXIETHYL)DITHIOCARBAMIC ACID, METHOD OF OBTAINING THEREOF AND […] ON THEM” (priority 1985, dated 1987)

Columns and labels:
[1] = Acute toxicity (LD50) in mice; format: in vivo, weißen Mäusen; conditions: intraabdominale Applikation an weißen Mäusen
[2] = test system: Cladosporium cladosporioides; assay: Mycelial growth inhibition on agar (contact activity); format: cell-based; conditions: Tabelle 12
Cladosporium resinae = assay: as above; format: cell-based; conditions: Tabelle 12
[3] = Solubility in water (descriptive); format: physicochemical
Bacillus = assay: Bactericidal activity on agar (concentration of complete growth inhibition); format: cell-based; conditions: % bezogen auf den Wirkstoff; am 5. Tag
Procedure: (§1) Geprüft wird die bakterizide Aktivität von Kalium-, Natrium-, Zink- und Kupfersalzen der N-(Vinyloxyäthyl)dithiocarbamidsäure gegen Bakterien der Gattungen Bacillus, Micrococcus, Pseudomonas, Escherichia und Xantomonas.
(§2) Man stellt wäßrige Stofflösungen verschiedener Konzentration her, die so berechnet werden, daß die Stoffkonzentration in der Petri-Schale bei der Gabe von 1 ml Lösung in das geschmolzene Nährmedium (45 bis 50 °C) zwischen 0,003 und 25 % (bezogen auf den Wirkstoff) schwankt. Nach 18 bis 24 Stunden bringt man auf die Oberfläche des Nährmediums 0,1 ml wäßrige Suspension eintägiger reiner Kulturen von Bakterien auf und verteilt sie gleichmäßig. In Kontrollschalen verteilt sich 0,1 ml Wasser über die Oberfläche des Nährmediums. Die Inkubation erfolgt bei 37 °C innerhalb von 5 Tagen. Die Wirksamkeit der Stoffe wird nach dem Auftreten des Bakterienwachstums auf der Oberfläche des Nährmediums eingeschätzt. Die Prüfergebnisse sind in der Tabelle 13 dargestellt.

Micrococcus = assay: as above; format: cell-based; conditions: % bezogen auf den Wirkstoff; am 5. Tag
Procedure: as §1, §2

Escherichia = assay: as above; format: cell-based; conditions: % bezogen auf den Wirkstoff; am 5. Tag
Procedure: as §1, §2

Xantomonas = assay: as above; format: cell-based; conditions: % bezogen auf den Wirkstoff; am 5. Tag
Procedure: as §1, §2

Pseudomonas = assay: as above; format: cell-based; conditions: % bezogen auf den Wirkstoff; am 5. Tag
Procedure: as §1, §2

[4] = Storage stability (descriptive); format: physicochemical
Acremonium charticola = assay: Mycelial growth inhibition on agar (contact activity); format: cell-based; conditions: Tabelle 12
[5] = test system: gewöhnlichen Mehlkäfern und Schwarmspinnerraupen; assay: Antifeedant activity; format: in vivo; conditions: Vergleichsmuster Brestan
From the text: Die Prüfung der antiphydanten Aktivität wurde an gewöhnlichen Mehlkäfern und Schwarmspinnerraupen durchgeführt.

Penicillium chrysogenum = assay: Mycelial growth inhibition on agar (contact activity); format: cell-based; conditions: Tabelle 12
Procedure: (§3) Die Prüfungen werden nach dem Verfahren zur Ermittlung der Kontaktaktivität durchgeführt. Man verwendet das in Wasser gelöste Kalium-N-(vinyloxyäthyl)dithiocarbamat, führt es in ein Nährmedium ein und vergießt auf Petri-Schalen. Nach 24 Stunden wird mit Pilzmyzelium nach einem Stichverfahren geimpft. Dann temperiert man die Schalen innerhalb von 5 Tagen bei einer zwischen 24 und 26 °C liegenden Temperatur und mißt den Durchmesser von Pilzkolonien, ermittelt den Prozentsatz der Hemmung des Myzelwachstums (S) ausgehend von Angaben am 5. Tag nach der Abbott-Formel [drawing 13] worin dc für den Durchmesser der Pilzkolonien, de für den Durchmesser von Pilzkolonien in der Schale stehen, wo ein die zu prüfenden Stoffe enthaltendes Medium vorhanden ist. Dieses Verfahren zur Ermittlung der mikrobiologischen Aktivität ist in anderen Beispielen verwendet.
(§4) Die Pilzkulturen werden auf Würzeagar gezüchtet. Ergebnisse, erhalten bei der Prüfung der fungiziden Aktivität gegen reine Kulturen von Mikroorganismen, welche Bioschädigungen hervorrufen, sind in der Tabelle 1 dargestellt.

Geotrichum candidum Link = assay: as above; format: cell-based; conditions: Tabelle 12
Procedure: as §3, §4

Penicillium charlesii = assay: as above; format: cell-based; conditions: Tabelle 12
Procedure: as §3, §4

Walrotiela subiculesa = assay: as above; format: cell-based; conditions: Tabelle 12
Procedure: as §3, §4

Acremonium cowum = assay: as above; format: cell-based; conditions: Tabelle 12
[6] = Konzentration des Praparats 0,1 %
[7] = Konzentration des Praparats 0,2 %
[8] = Konzentration des Praparats 0,4 %
[9] = Konzentration des Praparats 0,05 %
[10] = Konzentration des Praparats 0,8 %

Kupfer-N-(vinyloxyäthyl)dithiocarbamat
LD50 [1]: 267 mg/kg
Myzelhemmung in % [2, 6]: 100%
Myzelhemmung in % [2, 7]: 100%
Myzelhemmung in % [2, 8]: 100%
Myzelhemmung in % [2, 9]: 45%
Myzelhemmung in % [2, 10]: 100%
Myzelhemmung in % (Cladosporium resinae; [6]): 43%
Myzelhemmung in % (Cladosporium resinae; [7]): 75%
Myzelhemmung in % (Cladosporium resinae; [8]): 100%
Myzelhemmung in % (Cladosporium resinae; [9]): 34%
Myzelhemmung in % (Cladosporium resinae; [10]): 100%
Löslichkeit in Wasser [3]: unlöslich
Konzentrationen, welche das Bakterienwachstum völlig (100 %) hemmen (Bacillus): 0,25%
Konzentrationen, welche das Bakterienwachstum völlig (100 %) hemmen (Micrococcus): 0,25%
Konzentrationen, welche das Bakterienwachstum völlig (100 %) hemmen (Escherichia): 0,25%
Konzentrationen, welche das Bakterienwachstum völlig (100 %) hemmen (Xantomonas): 0,25%
Konzentrationen, welche das Bakterienwachstum völlig (100 %) hemmen (Pseudomonas): 0,25%
Lagerbeständigkeit [4]: lagerbeständig
Myzelhemmung in % (Acremonium charticola; [6]): 50%
Myzelhemmung in % (Acremonium charticola; [7]): 100%
Myzelhemmung in % (Acremonium charticola; [8]): 100%
Myzelhemmung in % (Acremonium charticola; [9]): 43%
Myzelhemmung in % (Acremonium charticola; [10]): 100%
antiphydante Aktivität [5]: auf gleicher Höhe mit Brestan
Myzelhemmung in % (Penicillium chrysogenum; [6]): 4%
Myzelhemmung in % (Penicillium chrysogenum; [7]): 40%
Myzelhemmung in % (Penicillium chrysogenum; [8]): 85%
Myzelhemmung in % (Penicillium chrysogenum; [9]): 4%
Myzelhemmung in % (Penicillium chrysogenum; [10]): 100%
Myzelhemmung in % (Geotrichum candidum Link; [6]): 100%
Myzelhemmung in % (Geotrichum candidum Link; [7]): 100%
Myzelhemmung in % (Geotrichum candidum Link; [8]): 100%
Myzelhemmung in % (Geotrichum candidum Link; [9]): 30%
Myzelhemmung in % (Geotrichum candidum Link; [10]): 100%
Myzelhemmung in % (Penicillium charlesii; [6]): 26%
Myzelhemmung in % (Penicillium charlesii; [7]): 37%
Myzelhemmung in % (Penicillium charlesii; [8]): 92%
Myzelhemmung in % (Penicillium charlesii; [9]): 24%
Myzelhemmung in % (Penicillium charlesii; [10]): 100%
Myzelhemmung in % (Walrotiela subiculesa; [6]): 50%
Myzelhemmung in % (Walrotiela subiculesa; [7]): 45%
Myzelhemmung in % (Walrotiela subiculesa; [8]): 100%
Myzelhemmung in % (Walrotiela subiculesa; [9]): 0%
Myzelhemmung in % (Walrotiela subiculesa; [10]): 100%
Myzelhemmung in % (Acremonium cowum; [6]): 100%
Myzelhemmung in % (Acremonium cowum; [7]): 100%
Myzelhemmung in % (Acremonium cowum; [8]): 100%
Myzelhemmung in % (Acremonium cowum; [9]): 50%
Myzelhemmung in % (Acremonium cowum; [10]): 100%
